{"source": "patent US8772321B2", "about": "“Heteroannelated anthraquinone derivatives for inhibiting cancers” (National Defense Medical Center, priority 2008, dated 2014)", "key": {"60 cancer cell lines": {"tested_on": "60 cancer cell lines", "test": "NCI 60-cell one dose screen, whole panel", "assay_type": "cell-based, human", "settings": "10^−5M", "protocol": "NSC745885 was studied as a prototype for anti-proliferative activity against human cancer cell lines in NCI Drug Screen Program (Table 1, below). NSC745885 was evaluated in the full panel of human tumor cell lines derived from nine cancer cell types (leukemia, non-small cell lung cancer, colon cancer, CNS cancer, prostate cancer, melanoma, ovarian cancer, renal cancer and breast cancer). Each subpanel uses several cell lines and dose-response curves were drawn against the decadic logarithm (log 10) of the corresponding drug concentrations for each cell line by the subpanel group. They were also evaluated in the 60 cell line panel and anticancer assay was performed in accordance with the protocol of developmental therapeutics program (one dose mean graph). Results for each compound were reported as the proliferation percentage of the treated cells with that of the untreated control cells being 100. For each of these parameters the averaged values of mean graph midpoint (MG_MID) were calculated."}, "HCC-2998": {"tested_on": "HCC-2998", "test": "NCI 60-cell panel dose-response", "assay_type": "cell-based", "settings": "Homo sapiens; HCC-2998 (Colon cancer)"}, "A498": {"tested_on": "A498", "test": "NCI 60-cell panel dose-response", "assay_type": "cell-based", "settings": "Homo sapiens; A498 (Renal cancer)"}, "CAK1-1": {"tested_on": "CAK1-1", "test": "NCI 60-cell panel dose-response", "assay_type": "cell-based", "settings": "CAK1-1 (Renal cancer)"}, "[1]": {"tested_on": "NCI's 60 human cancer cell lines", "test": "NCI 60-cell panel dose-response, whole panel", "assay_type": "cell-based"}, "HeLa cells [2]": {"tested_on": "HeLa cells", "test": "Apoptosis: cleaved PARP and caspase 3 immunoblot, DNA fragmentation gel", "assay_type": "cell-based, human", "settings": "16 hours", "protocol": "It is well noted that DXR can induce cardiomyocyte death by apoptosis and necrosis. DXR is also involved in other types of cellular processes, such as autophagy and senescence/aging. To investigate induction of apoptosis caused by NSC745885, we adopted DXR as a positive control and examined the levels of cleaved PARP and caspase 3 as apoptotic indicators using immunoblot (FIG. 4A), as well as DNA fragmentation using agarose gel electrophoresis (FIG. 4B). HeLa cells were treated with either DXR or NSC745885 at various doses for 16 hours. Subsequently, the total cellular protein was extracted and immunoblotted with antibodies against the cleaved types of PARP and caspase 3. Additionally, genomic DNA was isolated and analyzed by 2% agarose gel electrophoresis followed by ethidium bromide staining. The results (FIG. 4A and FIG. 4B) are representative of three independent experiments. […] Treatment with NSC745885 decreased protein stability, an effect that appeared to be selective, and was confirmed in other immunoblot analyses (shown in FIG. 6A, lanes 1 and 6).\nCell lysates were prepared in lysis buffer (100 mM Tris-HCl pH 8.0, 150 mM NaCl, 0.1% SDS, and 1% Triton 100) at 4° C., separated by sodium dodecyl sulfate-polyacrylamide gel electrophoresis (SDS-PAGE), and then transferred onto a polyvinylidine difluoride membrane (Millipore, USA). Proteins were detected using antibodies against alpha actinin (ACTN), proliferating cell nuclear antigen (PCNA), p53, p21, cyclin B1, and cyclin D1 (Santa Cruz Biotechnology, USA), YH2A.X (EP854(2)Y, Epitomics, USA), cleaved caspase 3, cleaved poly(ADP-ribose) polymerase (PARP) and LC3B-II (Cell signaling, USA)."}, "HeLa cells [3]": {"tested_on": "HeLa cells", "test": "Senescence-associated β-galactosidase staining", "assay_type": "cell-based, human", "settings": "2.5 μM for 24 hours, stained after 48 hours", "protocol": "Cultured cells were washed in PBS (pH 7.4), incubated in a solution of 2% formaldehyde/0.2% glutaraldehyde, and then incubated overnight at 37° C. in freshly prepared staining solution consisting of 1 mg/mL X-gal (5-bromo-4-chloro-3-indolyl-β-D-galactoside), 5 mM K3Fe(CN)6, 5 mM K4Fe(CN)6, 150 mM NaCl and 2 mM MgCl2 in 40 mM citric acid/sodium phosphate, pH 6.0. Following this incubation, cells were washed with water and examined by light microscopy at 200× magnification.\nIn FIGS. 5C and 5D, HeLa cells were incubated with 2.5 μM NSC745885 for 24 hours. After 48 hours, cells were subjected to SA-β-galactosidase staining (FIG. 5C) and approximately 100 stained cells were quantified (*P<0.05; ** P<0.01; *** P<0.005). NSC745885 induced senescence at a rate of 25% (P=0.0085 compared to DMSO). (FIG. 5D) LC3B-I fragments were observed when the cells were exposed to the drug for longer period of time (FIG. 5A, panel labeled as LE). […] We also treated Hela cells with the autophagy inducer spermidine (Spd) and vehicle (DMSO), which act as the positive and the negative control, respectively."}, "MBT2": {"tested_on": "MBT2", "test": "Cell proliferation inhibition, bladder cancer cell line", "assay_type": "cell-based", "settings": "MBT2 bladder cancer cells, 2.5 uM", "description": "(§1) To investigate the cell proliferation inhibition effect of NSC745885 in cancer cells, we compared the cancer cell proliferation inhibition effect of the NSC745885 with well-know bladder anti-cancer agent “Emodin” and clinical cancer chemical therapy agent “Doxorubicin”. The experiment bladder cancer cell lines includes T24 (FIG. 9A, 9D) and MBT2 (FIG. 9 B, 9E). We also confirm the NSC745885 cell toxicity using the non-cancer cell fibroblast 3T3 (FIG. 9C) and normal epithelial cell SV_UC—1 (FIG. 9F)."}, "T24": {"tested_on": "T24", "test": "Cell proliferation inhibition, bladder cancer cell line", "assay_type": "cell-based", "settings": "T24 bladder cancer cells, 2.5 uM", "description": "as §1"}, "fibroblast 3T3": {"tested_on": "fibroblast 3T3", "test": "Cell toxicity in non-cancer cell", "assay_type": "cell-based", "description": "as §1"}, "U1R": {"tested_on": "U1R", "test": "Cell proliferation inhibition in anti-Doxorubicin cell line", "assay_type": "cell-based"}, "Stem Cell Factor (SCF)": {"tested_on": "Stem Cell Factor (SCF)", "test": "SCF protein expression in cells", "assay_type": "cell-based", "protocol": "To investigate whether NSC745885 down-regulates SCF in cancer cells, we treated bladder cancer cell (MBT2, T24) and normal epithelial cell (SV_HUC—1) with NSC745885 for 24 hours and then analyzed the SCF protein level.\nWe investigated NSC745885's effect on SCF expression in different cancer cells, including bladder cancer (MBT2, T24), breast cancer (MCF-7, MDA-MB-453), prostate cancer (PC3, LNCaP), kidney cancer (786-O), and kidney epithelial cell (293T). We treatment these different cancer cells with (+) or without (−) the NSC745885 (5 μM), and then analyzed SCF protein level."}, "SAS cells": {"tested_on": "SAS cells", "test": "SAS cell proliferation / morphology", "assay_type": "cell-based", "settings": "2.5 uM and 5 uM, 24 hours"}}, "note": "Like-named read-outs stand apart in the source and are kept apart here."}
{"smiles": "O=C1c2ccccc2C(=O)c2c1ccc1nsnc21", "note": "[NSC745885, anthra[2,1-c][1,2,5]thiadiazole-6,11-dione]", "values": [{"measurement": "proliferation percentage, Delta", "setting": "60 cancer cell lines; delta of the one dose mean graph", "result": 102.68, "unit": "%"}, {"measurement": "proliferation percentage, Mean", "setting": "60 cancer cell lines; mean over the cell lines", "result": 2.68, "unit": "%"}, {"measurement": "proliferation percentage, Range", "setting": "60 cancer cell lines; range over the cell lines", "result": 230.09, "unit": "%"}, {"measurement": "GI50", "setting": "HCC-2998", "result": 16.4, "unit": "µM"}, {"measurement": "GI50", "setting": "A498", "result": 12.4, "unit": "µM"}, {"measurement": "TGI", "setting": "CAK1-1", "result": 2.96, "unit": "µM"}, {"measurement": "GI50", "setting": "CAK1-1; Homo sapiens, 60 cell", "result": 1.61, "unit": "µM"}, {"measurement": "CC50", "setting": "CAK1-1; Homo sapiens, 60 cell, read-out: LC50 (the source's name)", "result": 5.44, "unit": "µM"}, {"measurement": "GI50", "setting": "[1]; Homo sapiens, 60 cell, all cell lines of the panel, read-out: GI50, span over the 60-cell panel", "result": "0.16 to 17.4", "unit": "µM"}, {"measurement": "CC50", "setting": "[1]; Homo sapiens, 60 cell, as low as, over the panel, read-out: LC50, lowest in the 60-cell panel", "result": "≥ 0.99", "unit": "µM"}, {"measurement": "GI50", "setting": "[1]; Homo sapiens, 60 cell, mean of the panel, read-out: GI50, mean over the 60-cell panel", "result": 2.04, "unit": "µM"}, {"measurement": "TGI, lowest in the 60-cell panel", "setting": "[1]; as low as, over the panel", "result": "≥ 0.40", "unit": "µM"}, {"measurement": "protein levels of cleaved PARP and caspase 3 at high concentration", "setting": "HeLa cells [2]; 25 μM, compared to DXR", "result": "dramatically decreased"}, {"measurement": "induction of apoptosis (cleaved PARP, caspase 3, DNA fragmentation)", "setting": "HeLa cells [2]; various doses", "result": "comparable effect"}, {"measurement": "senescence rate (SA-β-galactosidase staining)", "setting": "HeLa cells [3]", "result": 25, "unit": "%"}, {"measurement": "cancer cell proliferation inhibition", "setting": "MBT2", "result": "distinct cancer cell proliferation inhibition ability"}, {"measurement": "cancer cell proliferation inhibition", "setting": "T24", "result": "distinct cancer cell proliferation inhibition ability"}, {"measurement": "cell toxicity in normal cell", "setting": "fibroblast 3T3", "result": "no cell toxicity"}, {"measurement": "cell proliferation inhibition", "setting": "U1R", "result": "distinct the cell proliferation inhibiting ability"}, {"measurement": "SCF protein level", "setting": "Stem Cell Factor (SCF); 5 μM, MBT2, T24, MCF-7, MDA-MB-453, PC3, LNCaP, 786-O, 293T", "result": "significantly decreased"}, {"measurement": "SCF protein expression", "setting": "Stem Cell Factor (SCF); MBT2, T24 and SV_HUC—1 cells, 24 hours, increasing concentrations", "result": "suppressed"}, {"measurement": "SAS cells proliferation", "setting": "SAS cells", "result": "significantly inhibit"}]}
